± gives the expanded uncertainty stated by the source.
Assay: xn = mol fraction of the nth substance listed
Settings: 101 kPa, Liquid; for viscosity: Capillary tube (Ostwald / Ubbelohde) method; for mass density: Vibrating tube method

CC(=O)[O-].CCn1cc[n+](C)c1 [1-ethyl-3-methylimidazolium acetate] + CCOS(=O)(=O)[O-].CCn1cc[n+](C)c1
viscosity (298.15 K, x1 = 0.0993): 97.2 ± 2.2 mPa·s | viscosity (298.15 K, x1 = 0.2011): 99.93 ± 2.3 mPa·s | viscosity (298.15 K, x1 = 0.2973): 101.8 ± 2.4 mPa·s | viscosity (298.15 K, x1 = 0.3917): 105.2 ± 2.5 mPa·s | viscosity (298.15 K, x1 = 0.5069): 110.1 ± 2.6 mPa·s | viscosity (298.15 K, x1 = 0.5988): 114.1 ± 2.8 mPa·s | viscosity (298.15 K, x1 = 0.705): 120.1 ± 3 mPa·s | viscosity (298.15 K, x1 = 0.8012): 125.8 ± 3.2 mPa·s | viscosity (298.15 K, x1 = 0.9007): 131 ± 3.3 mPa·s | viscosity (298.15 K, x1 = 1): 138.4 ± 3.6 mPa·s | mass density (298.15 K, x1 = 0.0993): 1226.62 ± 10 kg/m3 | mass density (298.15 K, x1 = 0.2011): 1214.23 ± 10 kg/m3 | mass density (298.15 K, x1 = 0.2973): 1202.11 ± 10 kg/m3 | mass density (298.15 K, x1 = 0.3917): 1189.85 ± 10 kg/m3 | mass density (298.15 K, x1 = 0.5069): 1174.26 ± 10 kg/m3 | mass density (298.15 K, x1 = 0.5988): 1161.36 ± 10 kg/m3 | mass density (298.15 K, x1 = 0.705): 1145.81 ± 10 kg/m3 | mass density (298.15 K, x1 = 0.8012): 1131.13 ± 10 kg/m3 | mass density (298.15 K, x1 = 0.9007): 1115.5 ± 10 kg/m3 | mass density (298.15 K, x1 = 1): 1099.04 ± 10 kg/m3 | viscosity (308.15 K, x1 = 0.0993): 61.11 ± 1.3 mPa·s | viscosity (308.15 K, x1 = 0.2011): 61.27 ± 1.3 mPa·s | viscosity (308.15 K, x1 = 0.2973): 62.35 ± 1.3 mPa·s | viscosity (308.15 K, x1 = 0.3917): 63.63 ± 1.3 mPa·s | viscosity (308.15 K, x1 = 0.5069): 65.47 ± 1.4 mPa·s | viscosity (308.15 K, x1 = 0.5988): 66.99 ± 1.4 mPa·s | viscosity (308.15 K, x1 = 0.705): 69.07 ± 1.5 mPa·s | viscosity (308.15 K, x1 = 0.8012): 71.01 ± 1.5 mPa·s | viscosity (308.15 K, x1 = 0.9007): 73.4 ± 1.6 mPa·s | viscosity (308.15 K, x1 = 1): 76.1 ± 1.6 mPa·s | mass density (308.15 K, x1 = 0.0993): 1219.9 ± 10 kg/m3 | mass density (308.15 K, x1 = 0.2011): 1207.5 ± 10 kg/m3 | mass density (308.15 K, x1 = 0.2973): 1195.48 ± 10 kg/m3 | mass density (308.15 K, x1 = 0.3917): 1183.26 ± 10 kg/m3 | mass density (308.15 K, x1 = 0.5069): 1167.73 ± 10 kg/m3 | mass density (308.15 K, x1 = 0.5988): 1154.86 ± 10 kg/m3 | mass density (308.15 K, x1 = 0.705): 1139.5 ± 10 kg/m3 | mass density (308.15 K, x1 = 0.8012): 1124.87 ± 10 kg/m3 | mass density (308.15 K, x1 = 0.9007): 1109.3 ± 10 kg/m3 | mass density (308.15 K, x1 = 1): 1092.95 ± 10 kg/m3 | viscosity (318.15 K, x1 = 0.0993): 40.47 ± 0.85 mPa·s | viscosity (318.15 K, x1 = 0.2011): 41.05 ± 0.86 mPa·s | viscosity (318.15 K, x1 = 0.2973): 41.59 ± 0.87 mPa·s | viscosity (318.15 K, x1 = 0.3917): 42.12 ± 0.88 mPa·s | viscosity (318.15 K, x1 = 0.5069): 41.77 ± 0.88 mPa·s | viscosity (318.15 K, x1 = 0.5988): 43.3 ± 0.91 mPa·s | viscosity (318.15 K, x1 = 0.705): 43.93 ± 0.92 mPa·s | viscosity (318.15 K, x1 = 0.8012): 44.55 ± 0.93 mPa·s | viscosity (318.15 K, x1 = 0.9007): 45.24 ± 0.95 mPa·s | viscosity (318.15 K, x1 = 1): 45.9 ± 0.96 mPa·s | mass density (318.15 K, x1 = 0.0993): 1213.21 ± 10 kg/m3 | mass density (318.15 K, x1 = 0.2011): 1200.9 ± 10 kg/m3 | mass density (318.15 K, x1 = 0.2973): 1188.92 ± 10 kg/m3 | mass density (318.15 K, x1 = 0.3917): 1176.76 ± 10 kg/m3 | mass density (318.15 K, x1 = 0.5069): 1161.31 ± 10 kg/m3 | mass density (318.15 K, x1 = 0.5988): 1148.5 ± 10 kg/m3 | mass density (318.15 K, x1 = 0.705): 1133.15 ± 10 kg/m3 | mass density (318.15 K, x1 = 0.8012): 1118.65 ± 10 kg/m3 | mass density (318.15 K, x1 = 0.9007): 1103.14 ± 10 kg/m3 | mass density (318.15 K, x1 = 1): 1086.88 ± 10 kg/m3 | viscosity (328.15 K, x1 = 0.0993): 29.06 ± 0.61 mPa·s | viscosity (328.15 K, x1 = 0.2011): 29.19 ± 0.61 mPa·s | viscosity (328.15 K, x1 = 0.2973): 29.32 ± 0.61 mPa·s | viscosity (328.15 K, x1 = 0.3917): 29.44 ± 0.62 mPa·s | viscosity (328.15 K, x1 = 0.5069): 29.58 ± 0.62 mPa·s | viscosity (328.15 K, x1 = 0.5988): 29.69 ± 0.62 mPa·s | viscosity (328.15 K, x1 = 0.705): 29.81 ± 0.63 mPa·s | viscosity (328.15 K, x1 = 0.8012): 29.91 ± 0.63 mPa·s | viscosity (328.15 K, x1 = 0.9007): 30 ± 0.63 mPa·s | viscosity (328.15 K, x1 = 1): 30.1 ± 0.63 mPa·s | mass density (328.15 K, x1 = 0.0993): 1206.59 ± 10 kg/m3 | mass density (328.15 K, x1 = 0.2011): 1194.33 ± 10 kg/m3 | mass density (328.15 K, x1 = 0.2973): 1182.38 ± 10 kg/m3 | mass density (328.15 K, x1 = 0.3917): 1170.26 ± 10 kg/m3 | mass density (328.15 K, x1 = 0.5069): 1154.88 ± 10 kg/m3 | mass density (328.15 K, x1 = 0.5988): 1142.13 ± 10 kg/m3 | mass density (328.15 K, x1 = 0.705): 1126.87 ± 10 kg/m3 | mass density (328.15 K, x1 = 0.8012): 1112.55 ± 10 kg/m3 | mass density (328.15 K, x1 = 0.9007): 1097.01 ± 10 kg/m3 | mass density (328.15 K, x1 = 1): 1080.86 ± 10 kg/m3 | viscosity (338.15 K, x1 = 0.0993): 20.7 ± 0.43 mPa·s | viscosity (338.15 K, x1 = 0.2011): 20.78 ± 0.44 mPa·s | viscosity (338.15 K, x1 = 0.2973): 20.84 ± 0.44 mPa·s | viscosity (338.15 K, x1 = 0.3917): 20.89 ± 0.44 mPa·s | viscosity (338.15 K, x1 = 0.5069): 20.92 ± 0.44 mPa·s | viscosity (338.15 K, x1 = 0.5988): 20.92 ± 0.44 mPa·s | viscosity (338.15 K, x1 = 0.705): 20.89 ± 0.44 mPa·s | viscosity (338.15 K, x1 = 0.8012): 20.86 ± 0.44 mPa·s | viscosity (338.15 K, x1 = 0.9007): 20.84 ± 0.44 mPa·s | viscosity (338.15 K, x1 = 1): 20.8 ± 0.44 mPa·s | mass density (338.15 K, x1 = 0.0993): 1200.01 ± 10 kg/m3 | mass density (338.15 K, x1 = 0.2011): 1187.79 ± 10 kg/m3 | mass density (338.15 K, x1 = 0.2973): 1175.91 ± 10 kg/m3 | mass density (338.15 K, x1 = 0.3917): 1163.85 ± 10 kg/m3 | mass density (338.15 K, x1 = 0.5069): 1148.54 ± 10 kg/m3 | mass density (338.15 K, x1 = 0.5988): 1135.86 ± 10 kg/m3 | mass density (338.15 K, x1 = 0.705): 1120.68 ± 10 kg/m3 | mass density (338.15 K, x1 = 0.8012): 1106.35 ± 10 kg/m3 | mass density (338.15 K, x1 = 0.9007): 1090.93 ± 10 kg/m3 | mass density (338.15 K, x1 = 1): 1074.86 ± 10 kg/m3 | viscosity (348.15 K, x1 = 0.0993): 15.63 ± 0.33 mPa·s | viscosity (348.15 K, x1 = 0.2011): 15.58 ± 0.33 mPa·s | viscosity (348.15 K, x1 = 0.2973): 15.5 ± 0.33 mPa·s | viscosity (348.15 K, x1 = 0.3917): 15.39 ± 0.32 mPa·s | viscosity (348.15 K, x1 = 0.5069): 15.24 ± 0.32 mPa·s | viscosity (348.15 K, x1 = 0.5988): 15.1 ± 0.32 mPa·s | viscosity (348.15 K, x1 = 0.705): 14.91 ± 0.31 mPa·s | viscosity (348.15 K, x1 = 0.8012): 14.72 ± 0.31 mPa·s | viscosity (348.15 K, x1 = 0.9007): 14.51 ± 0.3 mPa·s | viscosity (348.15 K, x1 = 1): 14.28 ± 0.3 mPa·s | mass density (348.15 K, x1 = 0.0993): 1196.34 ± 10 kg/m3 | mass density (348.15 K, x1 = 0.2011): 1184.12 ± 10 kg/m3 | mass density (348.15 K, x1 = 0.2973): 1172.27 ± 10 kg/m3 | mass density (348.15 K, x1 = 0.3917): 1160.23 ± 10 kg/m3 | mass density (348.15 K, x1 = 0.5069): 1144.94 ± 10 kg/m3 | mass density (348.15 K, x1 = 0.5988): 1132.29 ± 10 kg/m3 | mass density (348.15 K, x1 = 0.705): 1117.12 ± 10 kg/m3 | mass density (348.15 K, x1 = 0.8012): 1102.78 ± 10 kg/m3 | mass density (348.15 K, x1 = 0.9007): 1087.39 ± 10 kg/m3 | mass density (348.15 K, x1 = 1): 1071.37 ± 10 kg/m3 | viscosity (358.15 K, x1 = 0.0993): 12.57 ± 0.26 mPa·s | viscosity (358.15 K, x1 = 0.2011): 12.8 ± 0.27 mPa·s | viscosity (358.15 K, x1 = 0.2973): 12.95 ± 0.27 mPa·s | viscosity (358.15 K, x1 = 0.3917): 12.93 ± 0.27 mPa·s | viscosity (358.15 K, x1 = 0.5069): 12.9 ± 0.27 mPa·s | viscosity (358.15 K, x1 = 0.5988): 12.81 ± 0.27 mPa·s | viscosity (358.15 K, x1 = 0.705): 12.7 ± 0.27 mPa·s | viscosity (358.15 K, x1 = 0.8012): 12.47 ± 0.26 mPa·s | viscosity (358.15 K, x1 = 0.9007): 12.17 ± 0.26 mPa·s | viscosity (358.15 K, x1 = 1): 11.53 ± 0.24 mPa·s | mass density (358.15 K, x1 = 0.0993): 1187 ± 10 kg/m3 | mass density (358.15 K, x1 = 0.2011): 1174.89 ± 10 kg/m3 | mass density (358.15 K, x1 = 0.2973): 1163.13 ± 10 kg/m3 | mass density (358.15 K, x1 = 0.3917): 1151.18 ± 10 kg/m3 | mass density (358.15 K, x1 = 0.5069): 1136.03 ± 10 kg/m3 | mass density (358.15 K, x1 = 0.5988): 1123.47 ± 10 kg/m3 | mass density (358.15 K, x1 = 0.705): 1108.41 ± 10 kg/m3 | mass density (358.15 K, x1 = 0.8012): 1094.15 ± 10 kg/m3 | mass density (358.15 K, x1 = 0.9007): 1078.94 ± 10 kg/m3 | mass density (358.15 K, x1 = 1): 1063.03 ± 10 kg/m3
